Measured values: ChEMBL document CHEMBL1201862, “PubChem BioAssay data set” (2004)
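Each compound was tested at five concentrations against cells in 96-well plates for 48 hours. GI50: concentration for 50% inhibition of growth.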 Activity calls are given as the source filed them. No stated cut-off is given here; in the data, active = GI50 up to about 1.1 µM and inactive = higher.

How the values were obtained:
Experiment in all cases: inhibition of tumour cell growth, NCI panel, 48 h
[1] = system: CAKI-1
[2] = system: EKVX
[3] = system: HCT-116
[4] = system: HL-60
[5] = system: HOP-92
[6] = system: K562
[7] = system: KM12
[8] = system: M14
[9] = system: MOLT-4
[10] = system: OVCAR-3
[11] = system: OVCAR-5
[12] = system: SF-268
[13] = system: SF-295
[14] = system: SK-MEL-2
[15] = system: SK-OV-3
[16] = system: SNB-19
[17] = system: SNB-75

Row | SMILES | GI50 [1] | GI50 [2] | GI50 [3] | GI50 [4] | GI50 [5] | GI50 [6] | GI50 [7] | GI50 [8] | GI50 [9] | GI50 [10] | GI50 [11] | GI50 [12] | GI50 [13] | GI50 [14] | GI50 [15] | GI50 [16] | GI50 [17]
1 | O=C(CC(=O)n1nc(-c2ccccc2)c(/N=N/c2ccc([N+](=O)[O-])cc2)c1-c1ccccc1)Nc1ccc(Cl)cc1 | 20 µM (inactive) | 26.7 µM (inactive) | 12.9 µM (inactive) | 17 µM (inactive) | 16.8 µM (inactive) | 4.19 µM (inactive) | 12 µM (inactive) | 13.5 µM (inactive) | 24.1 µM (inactive) | 16 µM (inactive) | 26.5 µM (inactive) | 13.5 µM (inactive) | 40.6 µM (inactive) | 34.8 µM (inactive) | 18.8 µM (inactive) | 26.4 µM (inactive) | 29 µM (inactive)
2 | CC(C)C(=O)/C=C/c1ccc(Cl)c(Cl)c1 |  | 23.4 µM (inactive) | 3.69 µM (inactive) | 15 µM (inactive) | 17.4 µM (inactive) | 6.18 µM (inactive) | 14.8 µM (inactive) | 17.5 µM (inactive) | 24.4 µM (inactive) | 14.5 µM (inactive) | 21.7 µM (inactive) | 19.2 µM (inactive) | 13.4 µM (inactive) | 17.5 µM (inactive) | 28.6 µM (inactive) | 15.1 µM (inactive) | > 10 µM (inactive)
3 | C[N+](C)(C)CCc1ccccc1 | > 100 µM (inactive) | > 100 µM (inactive) | > 100 µM (inactive) | > 100 µM (inactive) | > 100 µM (inactive) | > 100 µM (inactive) | > 100 µM (inactive) | > 100 µM (inactive) | > 100 µM (inactive) | > 100 µM (inactive) | > 100 µM (inactive) | > 100 µM (inactive) | > 100 µM (inactive) | > 100 µM (inactive) | > 100 µM (inactive) | > 100 µM (inactive) | > 100 µM (inactive)
4 | CN(C)/N=N/c1ccccc1 | > 100 µM (inactive) | > 100 µM (inactive) | > 100 µM (inactive) | > 100 µM (inactive) | > 100 µM (inactive) | > 100 µM (inactive) | 12.7 µM (inactive) | > 100 µM (inactive) | > 100 µM (inactive) | > 100 µM (inactive) |  | > 100 µM (inactive) | 1.35 µM (inactive) | > 100 µM (inactive) | > 100 µM (inactive) | > 100 µM (inactive) | > 100 µM (inactive)
5 | Cc1c2cc[n+](C)cc2c(C)c2c1[nH]c1ccc(O)c(OCC(F)(F)F)c12 | 12.8 µM (inactive) | 2.68 µM (inactive) | 4.97 µM (inactive) | 2.5 µM (inactive) | 4.91 µM (inactive) | 2.39 µM (inactive) |  | 6.22 µM (inactive) | 2.42 µM (inactive) | 0.895 µM (active) | 7.11 µM (inactive) | 0.164 µM (active) | 0.839 µM (active) | 4.63 µM (inactive) | 6.75 µM (inactive) | 0.218 µM (active) | 0.188 µM (active)
6 | NNC(=O)CC(=O)Nc1ccccc1F | > 100 µM (inactive) | > 100 µM (inactive) | > 100 µM (inactive) | > 100 µM (inactive) | > 100 µM (inactive) | > 100 µM (inactive) | > 100 µM (inactive) | > 100 µM (inactive) | > 100 µM (inactive) | > 100 µM (inactive) | > 100 µM (inactive) | > 100 µM (inactive) | > 100 µM (inactive) |  | > 100 µM (inactive) | > 100 µM (inactive) | > 100 µM (inactive)
